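How tested: cells in 96-well plates exposed to compound for 48 hours at five concentrations. GI50: concentration for 50% inhibition of growth.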 Calls of active or inactive are those of the source. Rule as the data show it: active = GI50 up to about 1.1 µM and inactive = higher.
How the values were obtained:
Assay in all cases: inhibition of tumour cell growth, NCI panel, 48 h
MDA-MB-435 = system: MDA-MB-435
UACC-257 = system: UACC-257
DU-145 = system: DU-145
NCI-H522 = system: NCI-H522
IGROV-1 = system: IGROV-1
HT-29 = system: HT-29
SK-MEL-28 = system: SK-MEL-28
786-0 = system: 786-0
HOP-62 = system: HOP-62
HOP-92 = system: HOP-92
A498 = system: A498
A549 = system: A549
UO-31 = system: UO-31
HCT-116 = system: HCT-116
NCI-H460 = system: NCI-H460
EKVX = system: EKVX
NCI/ADR-RES = system: NCI/ADR-RES
MDA-N = system: MDA-N
SNB-19 = system: SNB-19

SMILES | GI50 (MDA-MB-435) | GI50 (UACC-257) | GI50 (DU-145) | GI50 (NCI-H522) | GI50 (IGROV-1) | GI50 (HT-29) | GI50 (SK-MEL-28) | GI50 (786-0) | GI50 (HOP-62) | GI50 (HOP-92) | GI50 (A498) | GI50 (A549) | GI50 (UO-31) | GI50 (HCT-116) | GI50 (NCI-H460) | GI50 (EKVX) | GI50 (NCI/ADR-RES) | GI50 (MDA-N) | GI50 (SNB-19)
CC1CC(C)CC(NC2=NCCO2)C1 (stereo unspecified) | > 100 µM (inactive) | > 100 µM (inactive) | > 100 µM (inactive) | > 100 µM (inactive) | > 100 µM (inactive) | > 100 µM (inactive) | > 100 µM (inactive) | > 100 µM (inactive) | > 100 µM (inactive) | > 100 µM (inactive) | > 100 µM (inactive) | > 100 µM (inactive) | > 100 µM (inactive) | > 100 µM (inactive) | > 100 µM (inactive) | > 100 µM (inactive) | > 100 µM (inactive) | > 100 µM (inactive) | > 100 µM (inactive)
C=C1c2nc3ccccc3n2C=C(c2ccc(C)cc2)N1c1ccc(C)cc1 | 11.6 µM (inactive) | 67.3 µM (inactive) | > 83.4 µM (inactive) | 17.2 µM (inactive) | > 67.1 µM (inactive) | 37.9 µM (inactive) | > 100 µM (inactive) | 78.3 µM (inactive) | > 100 µM (inactive) | 68.5 µM (inactive) | > 100 µM (inactive) | 52.6 µM (inactive) | 46 µM (inactive) | 43.7 µM (inactive) | 42.3 µM (inactive) | 46.6 µM (inactive) | 17.9 µM (inactive) | 20.6 µM (inactive) | > 100 µM (inactive)
Nc1nc(-c2ccccc2)c(CC(=O)O)s1 | > 100 µM (inactive) | > 100 µM (inactive) | > 100 µM (inactive) | > 100 µM (inactive) | > 100 µM (inactive) | > 100 µM (inactive) | > 100 µM (inactive) | > 100 µM (inactive) | > 100 µM (inactive) | > 100 µM (inactive) | > 100 µM (inactive) | > 100 µM (inactive) | > 100 µM (inactive) | > 100 µM (inactive) | > 100 µM (inactive) | > 100 µM (inactive) | > 100 µM (inactive) | > 100 µM (inactive) | > 100 µM (inactive)
Nc1cccc2cc(Cl)cnc12 | > 100 µM (inactive) | > 100 µM (inactive) | > 100 µM (inactive) | > 100 µM (inactive) | > 100 µM (inactive) | > 100 µM (inactive) | > 100 µM (inactive) | > 100 µM (inactive) | > 100 µM (inactive) | > 100 µM (inactive) | > 100 µM (inactive) | > 100 µM (inactive) | 26.7 µM (inactive) | > 100 µM (inactive) | > 100 µM (inactive) | > 100 µM (inactive) | > 100 µM (inactive) | > 100 µM (inactive) | > 100 µM (inactive)
COc1ccc(CNc2nc(NCc3ccc(OC)cc3)nc(NC(C)C)n2)cc1 | 3.1 µM (inactive) | 7.85 µM (inactive) | 19.2 µM (inactive) | 3.03 µM (inactive) | 7.53 µM (inactive) | 5.41 µM (inactive) | 46.8 µM (inactive) | 7.91 µM (inactive) | 6.56 µM (inactive) | 3.37 µM (inactive) | 4.79 µM (inactive) | 6.24 µM (inactive) | 19.5 µM (inactive) | 3.18 µM (inactive) | 3.66 µM (inactive) | 25 µM (inactive) | 4.58 µM (inactive) | 2.69 µM (inactive) | 84.1 µM (inactive)
O=C1C(Cl)=C(Oc2ccc([N+](=O)[O-])cc2)C(=O)c2c(O)ccc(O)c21 | > 47.5 µM (inactive) | > 100 µM (inactive) | > 100 µM (inactive) | 19.2 µM (inactive) | > 100 µM (inactive) | 33.9 µM (inactive) | > 50.2 µM (inactive) | 67.9 µM (inactive) | > 100 µM (inactive) | 28.3 µM (inactive) | > 100 µM (inactive) | > 100 µM (inactive) | > 100 µM (inactive) | 49.3 µM (inactive) | > 100 µM (inactive) | > 100 µM (inactive) | > 100 µM (inactive) | 21 µM (inactive) | > 100 µM (inactive)
Cc1ccnc(NS(=O)(=O)c2ccc(N=[N+]=[N-])cc2)n1 | > 100 µM (inactive) | > 100 µM (inactive) | > 100 µM (inactive) | > 100 µM (inactive) | > 100 µM (inactive) | > 100 µM (inactive) | > 100 µM (inactive) | > 100 µM (inactive) | > 100 µM (inactive) | > 100 µM (inactive) | > 100 µM (inactive) | > 100 µM (inactive) | > 100 µM (inactive) | > 100 µM (inactive) | > 100 µM (inactive) | > 100 µM (inactive) | > 100 µM (inactive) | > 100 µM (inactive) | > 100 µM (inactive)
C[C@@H](c1ccccc1)N1C[C@@H](c2ccc3c(c2)OCO3)[C@@H]2C(=O)CCC[C@@H]21 | 67.8 µM (inactive) | 50.2 µM (inactive) | > 100 µM (inactive) | 42.5 µM (inactive) | 41.1 µM (inactive) | 98.9 µM (inactive) | 28.6 µM (inactive) | 75.2 µM (inactive) | > 100 µM (inactive) | 47.1 µM (inactive) | 28.6 µM (inactive) | 57.9 µM (inactive) | 83 µM (inactive) | 43.8 µM (inactive) | 54.5 µM (inactive) | 69.3 µM (inactive) | 81.7 µM (inactive) | > 100 µM (inactive) | 75 µM (inactive)
COc1cc2cc(C(=O)N3CC(CCl)c4ccc([N+](C)(C)Cc5ccc([N+](=O)[O-])cc5)cc43)[nH]c2c(OC)c1OC (stereo unspecified) | 4.54 µM (inactive) | 1.83 µM (inactive) | 3.05 µM (inactive) | 0.552 µM (active) | 1.97 µM (inactive) | 2.03 µM (inactive) | 9.29 µM (inactive) | 2.32 µM (inactive) | 4.92 µM (inactive) | 2.52 µM (inactive) | 1.76 µM (inactive) | 1.8 µM (inactive) | 2.1 µM (inactive) | 1.83 µM (inactive) | 1.52 µM (inactive) | 5.69 µM (inactive) | 1.71 µM (inactive) | 3.53 µM (inactive) | 8.53 µM (inactive)
O=C1/C(=C/c2c(Cl)[nH]c3ccccc23)c2ccccc2N1c1ccccc1 | 1.64 µM (inactive) | 11.6 µM (inactive) | 7.43 µM (inactive) | 3.05 µM (inactive) | 4.39 µM (inactive) | 3.53 µM (inactive) | 10.4 µM (inactive) | 6.56 µM (inactive) | 4.94 µM (inactive) | 9.44 µM (inactive) | 10.4 µM (inactive) | 5.18 µM (inactive) | 6.46 µM (inactive) | 4.6 µM (inactive) | 3.59 µM (inactive) | 3.16 µM (inactive) | 2.24 µM (inactive) | 1.85 µM (inactive) | 9.84 µM (inactive)
CS(=O)(=O)Nc1ccc(N2Cc3c[nH]c4ccc5nccc2c5c34)cc1 | 15.5 µM (inactive) | 14.5 µM (inactive) | 18.3 µM (inactive) | 10.3 µM (inactive) | 22.2 µM (inactive) | 25.5 µM (inactive) | 18.9 µM (inactive) | 14.3 µM (inactive) | 17.5 µM (inactive) | 12.9 µM (inactive) | 23.2 µM (inactive) | 33.4 µM (inactive) | > 100 µM (inactive) | 9.14 µM (inactive) | 19.4 µM (inactive) | 44.7 µM (inactive) | > 100 µM (inactive) | 15.7 µM (inactive) | 13.1 µM (inactive)
COc1cc2c(cc1OC)C(=O)/C(=C/c1ccccc1)CC2 | 8.09 µM (inactive) | 61.2 µM (inactive) | 83.2 µM (inactive) | 52.6 µM (inactive) | 38.9 µM (inactive) | 17.9 µM (inactive) | 64.9 µM (inactive) | 34.9 µM (inactive) | > 100 µM (inactive) | 24.8 µM (inactive) | 26.1 µM (inactive) | 27.7 µM (inactive) | > 100 µM (inactive) | 23.8 µM (inactive) | 26.9 µM (inactive) | 56.1 µM (inactive) | 17.3 µM (inactive) | 12.4 µM (inactive) | 27.7 µM (inactive)
CC(C)CCn1c(=O)c2c(=O)[nH][nH]c2c2ccccc21 | > 100 µM (inactive) | > 100 µM (inactive) | > 100 µM (inactive) | > 100 µM (inactive) | > 100 µM (inactive) | > 100 µM (inactive) | > 100 µM (inactive) | > 100 µM (inactive) | > 100 µM (inactive) | > 100 µM (inactive) | > 100 µM (inactive) | > 100 µM (inactive) | > 100 µM (inactive) | > 100 µM (inactive) | > 100 µM (inactive) | > 100 µM (inactive) | > 100 µM (inactive) | > 100 µM (inactive) | > 100 µM (inactive)
CCCCc1cc2c(cc1O)CCC1C2CC[C@@]2(C)C1CC[C@@H]2O (stereo partly specified) | 16.9 µM (inactive) | 15.4 µM (inactive) | 18.3 µM (inactive) | 14 µM (inactive) | 22 µM (inactive) | 23.2 µM (inactive) | 23 µM (inactive) | 22.8 µM (inactive) | 28.4 µM (inactive) | 20 µM (inactive) | 21.8 µM (inactive) | 13.5 µM (inactive) | 14.5 µM (inactive) | 14.3 µM (inactive) | 21.9 µM (inactive) | 14.8 µM (inactive) | 18.7 µM (inactive) | 23.4 µM (inactive) | 25.5 µM (inactive)
